Experiments:
[1] = tested on: SARS-CoV-2 S protein-mediated cell–cell fusion; conditions: 2 h
pseudotyped HCoV-NL63 = conditions: 12 h
authentic SARS-CoV-2 = conditions: 48 h
authentic HCoV-OC43 = conditions: 36 h
proteinase K = proteinase K (Parengyodontium album, UniProt P06873); conditions: n = 3
SARS-CoV-2 PsV = conditions: 12 h
trypsin = conditions: n = 3

proteinase K, sequence (P06873 106-384): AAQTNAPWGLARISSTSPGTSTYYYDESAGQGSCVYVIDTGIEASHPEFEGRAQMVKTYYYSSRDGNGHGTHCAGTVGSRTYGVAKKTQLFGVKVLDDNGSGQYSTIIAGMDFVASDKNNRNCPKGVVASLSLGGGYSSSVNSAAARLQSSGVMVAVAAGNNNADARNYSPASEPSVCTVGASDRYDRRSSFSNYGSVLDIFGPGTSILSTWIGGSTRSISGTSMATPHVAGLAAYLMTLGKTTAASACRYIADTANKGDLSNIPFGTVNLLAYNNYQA

Compound | IC50 [1] | IC50 (pseudotyped HCoV-NL63) | IC50 (authentic SARS-CoV-2) | IC50 (authentic HCoV-OC43) | sensitivity to proteinase K (residual inhibitory activity over time) (proteinase K) | IC50 (SARS-CoV-2 PsV) | sensitivity to trypsin (residual inhibitory activity over time) (trypsin)
CC[C@H](C)[C@H](NC(=O)[C@H](C)NC(=O)[C@H](CCC(=O)O)NC(=O)[C@H](CCC(=O)O)NC(=O)[C@H](CC(C)C)NC(=O)[C@H](CCCCN)NC(=O)[C@H](CCCCN)NC(=O)[C@H](CCSC)NC(=O)[C@H](CCC(=O)O)NC(=O)[C@H](Cc1ccc(O)cc1)NC(=O)[C@H](CCC(=O)O)NC(=O)[C@H](CC(C)C)NC(=O)[C@H](CC(=O)O)NC(=O)[C@H](CC(C)C)NC(=O)[C@H](Cc1ccccc1)NC(=O)[C@@H](NC(=O)[C@@H](NC(=O)[C@H](CC(N)=O)NC(=O)[C@@H](NC(=O)[C@H](CCC(N)=O)NC(=O)[C@H](CC(=O)O)NC(=O)[C@H](CC(C)C)NC(=O)[C@@H](N)CO)[C@@H](C)CC)C(C)C)[C@@H](C)O)C(=O)N[C@@H](CCCCN)C(=O)N[C@@H](CCCCN)C(=O)N[C@@H](CC(C)C)C(=O)N[C@@H](CCC(=O)O)C(=O)N[C@@H](CCC(=O)O)C(=O)N[C@@H](CO)C(=O)N[C@@H](Cc1ccc(O)cc1)C(=O)N[C@H](C(=O)N[C@@H](CC(=O)O)C(=O)N[C@@H](CC(C)C)C(=O)N[C@@H](CCCCN)C(=O)N[C@@H](CCC(=O)O)C(=O)N[C@@H](CC(C)C)C(N)=O)[C@@H](C)CC [EK1] | 320 nM | 1340 nM | 71 nM | 2430 nM | – | – | –
CC[C@H](C)[C@H](NC(=O)[C@H](C)NC(=O)[C@H](CCC(=O)O)NC(=O)[C@H](CCC(=O)O)NC(=O)[C@H](CC(C)C)NC(=O)[C@H](CCCCN)NC(=O)[C@H](CCCCN)NC(=O)[C@H](CCSC)NC(=O)[C@H](CCC(=O)O)NC(=O)[C@H](Cc1ccc(O)cc1)NC(=O)[C@H](CCC(=O)O)NC(=O)[C@H](CC(C)C)NC(=O)[C@H](CC(=O)O)NC(=O)[C@H](CC(C)C)NC(=O)[C@H](Cc1ccccc1)NC(=O)[C@@H](NC(=O)[C@@H](NC(=O)[C@H](CC(N)=O)NC(=O)[C@@H](NC(=O)[C@H](CCC(N)=O)NC(=O)[C@H](CC(=O)O)NC(=O)[C@H](CC(C)C)NC(=O)[C@@H](N)CO)[C@@H](C)CC)C(C)C)[C@@H](C)O)C(=O)N[C@@H](CCCCN)C(=O)N[C@@H](CCCCN)C(=O)N[C@@H](CC(C)C)C(=O)N[C@@H](CCC(=O)O)C(=O)N[C@@H](CCC(=O)O)C(=O)N[C@@H](CO)C(=O)N[C@@H](Cc1ccc(O)cc1)C(=O)N[C@H](C(=O)N[C@@H](CC(=O)O)C(=O)N[C@@H](CC(C)C)C(=O)N[C@@H](CCCCN)C(=O)N[C@@H](CCC(=O)O)C(=O)N[C@@H](CC(C)C)C(=O)NCC(=O)N[C@@H](CO)C(=O)NCC(=O)N[C@@H](CO)C(=O)NCC(=O)NCCOCCOCCOCCOCCC(=O)N[C@@H](CSCC(=O)O[C@H]1CC[C@@]2(C)C(=CC[C@H]3[C@@H]4CC[C@H]([C@H](C)CCCC(C)C)[C@@]4(C)CC[C@@H]32)C1)C(N)=O)[C@@H](C)CC [EK1C4] | 3 nM | – | – | – | gradually decreased more significantly | 7 to 27 nM | gradually decreased more significantly
